Experimental data from patent publication US20110207723A1, “NOVEL FUSED AMINODIHYDROTHIAZINE DERIVATIVE” (EISAI R&D MANAGEMENT CO., LTD., priority 2008, published 2011).

What follows are compounds tested on Aβ42 production (assay: Quantification of Aβ peptide in culture of neurons from rat fetus brain (Aβ42 ELISA)). Conditions: Neuron, 72 h, rat primary neuronal culture (embryonic day 18 Wistar rat cerebral cortex), medium collected three days after addition of compound, read-out: Aβ42 production reducing effect IC50.
Type: cell-based
Experimental: Quantification of Aβ Peptide in Culture of Neurons from Rat Fetus Brain
Primary neuronal cultures were prepared from the cerebral cortex of embryonic day 18 Wistar rats (Charles River Japan, Yokohama, Japan). Specifically, the embryos were aseptically removed from pregnant rats under ether anesthesia. The brain was isolated from the embryo and immersed in an ice-cold L-15 medium (such as Invitrogen Corp. Cat #11415-064, Carlsbad, Calif., USA, or SIGMA L1518). The cerebral cortex was collected from the isolated brain under a stereoscopic microscope. The cerebral cortex fragments collected were enzymatically treated in an enzyme solution containing 0.25% trypsin (Invitrogen Corp. Cat #15050-065, Carlsbad, Calif., USA) and 0.01% DNase (Sigma D5025, St. Louis, Mo., USA) at 37° C. for 30 minutes to disperse the cells. Here, the enzymatic reaction was stopped by adding inactivated horse serum to the solution. The enzymatically treated solution was centrifuged at 1,500 rpm for five minutes to remove the supernatant. 5 to 10 ml of a medium was added to the resulting cell mass. Neurobasal medium (Invitrogen Corp. Cat #21103-049, Carlsbad, Calif., USA) supplemented with 2% B27 supplement (Invitrogen Corp. Cat #17504-044, Carlsbad, Calif., USA), 25 μM 2-mercaptoethanol (2-ME, WAKO Cat #139-06861, Osaka, Japan), 0.5 mM L-glutamine (Invitrogen Corp. Cat #25030-081, Carlsbad, Calif., USA), and Antibiotics-Antimycotics (Invitrogen Corp. Cat #15240-062, Carlsbad, Calif., USA) was used as the medium (Neurobasal/B27/2-ME). However, the above Neurobasal medium not supplemented with 2-ME (Neurobasal/B27) was used for the assay. The cells were redispersed by mild pipetting of the cell mass to which the medium was added. The cell dispersion was filtered through a 40-μm nylon mesh (Cell Strainer, Cat #35-2340, Becton Dickinson Labware, Franklin Lakes, N.J., USA) to remove the remaining cell mass, and thus a neuronal cell suspension was obtained. The neuronal cell suspension was diluted with the medium and then plated in a volume of 100 μl/well at an initial cell density of 5×10^5 cells/cm^2 in a 96-well polystyrene culture plate pre-coated with poly-L or D-lysine (Falcon Cat #35-3075, Becton Dickinson Labware, Franklin Lakes, N.J., USA coated with poly-L-lysine using the method shown below, or BIOCOAT™ cell environments Poly-D-lysine cell ware 96-well plate, Cat #35-6461, Becton Dickinson Labware, Franklin Lakes, N.J., USA). Poly-L-lysine coating was carried out as follows. 100 μg/ml of a poly-L-lysine (SIGMA P2636, St. Louis, Mo., USA) solution was aseptically prepared with a 0.15 M borate buffer (pH 8.5). […] of the solution was added to the 96-well polystyrene culture plate and incubated at room temperature for one or more hours or at 4° C. overnight or longer. Thereafter, the coated 96-well polystyrene culture plate was washed with sterile water four or more times, and then dried or rinsed with, for example, sterile PBS or medium, and used for cell plating. The plated cells were cultured in the culture plate at 37° C. in 5% CO2-95% air for one day. Then, the total amount of the medium was replaced with a fresh Neurobasal/B27/2-ME medium, and then the cells were cultured for further three days.
The drug was added to the culture plate on Day 4 of culture as follows. The total amount of the medium was removed from the wells, and 180 μl/well of Neurobasal medium not containing 2-ME and containing 2% B-27 (Neurobasal/B27) was added thereto. A solution of the test compound in dimethyl sulfoxide (hereinafter abbreviated as DMSO) was diluted with Neurobasal/B27 to a concentration 10-fold higher than the final concentration. 20 μl/well of the dilution was added to and sufficiently mixed with the medium. The final DMSO concentration was 1% or less. Only DMSO was added to the control group.
The cells were cultured for three days after addition of the compound, and the total amount of the medium was collected. […]

| SMILES | IC50 [nM] |
| --- | --- |
| NC1=N[C@@]2(c3cc(NC(=O)c4cnc(OCF)cn4)ccc3F)CO[C@@H](C(F)(F)F)C[C@H]2CS1 (relative stereo) [Example 39, N-[3-((4aR*,6R*,8aS*)-2-amino-6-trifluoromethyl-4,4a,5,6-tetrahydro-7-oxa-3-thia-1-azanaphthalen-8a-yl)-4-fluorophenyl]-5-fluoromethoxypyrazine-2-carboxamide] | 1 |
| NC1=N[C@@]2(c3cc(NC(=O)c4ccncn4)ccc3F)CO[C@@H](C(F)(F)F)C[C@H]2CS1 (relative stereo) [Example 40, N-[3-((4aR*,6R*,8aS*)-2-amino-6-trifluoromethyl-4,4a,5,6-tetrahydro-7-oxa-3-thia-1-azanaphthalen-8a-yl)-4-fluorophenyl]-pyrimidine-4-carboxamide] | 2 |
| NC1=N[C@@]2(c3cc(NC(=O)c4ncc(F)cc4F)ccc3F)CO[C@@H](C(F)(F)F)C[C@H]2CS1 (relative stereo) [Example 41, N-[3-((4aR*,6R*,8aS*-2-amino-6-trifluoromethyl-4,4a,5,6-tetrahydro-7-oxa-3-thia-1-azanaphthalen-8a-yl)-4-fluorophenyl]-3,5-difluoropyridine-2-carboxamide] | 2 |
| NC1=N[C@@]2(c3cc(NC(=O)c4ccc(OC(F)F)cn4)ccc3F)CO[C@@H](C(F)(F)F)C[C@H]2CS1 (relative stereo) [Example 42, N-[3-((4aR*,6R*,8aS*)-2-amino-6-trifluoromethyl-4,4a,5,6-tetrahydro-7-oxa-3-thia-1-azanaphthalen-8a-yl)-4-fluorophenyl]-5-difluoromethoxypyridine-2-carboxamide] | 0.9 |
| NC1=N[C@@]2(c3cc(NC(=O)c4cnc(C(F)F)cn4)ccc3F)CO[C@@H](C(F)(F)F)C[C@H]2CS1 (relative stereo) [Example 43, N-[3-((4aR*,6R*,8aS*)-2-amino-6-trifluoromethyl-4,4a,5,6-tetrahydro-7-oxa-3-thia-1-azanaphthalen-8a-yl)-4-fluorophenyl]-5-difluoromethylpyrazine-2-carboxamide] | 1.7 |
| NC1=N[C@@]2(c3cc(-c4cccnc4F)ccc3F)CO[C@@H](C(F)(F)F)C[C@H]2CS1 (relative stereo) [Example 59, (±)-(4aR*,6R*,8aS*)-8a-[2-fluoro-5-(2-fluoropyridin-3-yl)phenyl]-6-trifluoromethyl-4,4a,5,6,8,8a-hexahydro-7-oxa-3-thia-1-azanaphthalen-2-ylamine] | 87 |
| N#Cc1ccc(C(=O)Nc2ccc(OC(F)(F)F)c([C@]34COCC[C@H]3CSC(N)=N4)c2)nc1 (single isomer, unassigned) [Example 4, N-[3-((4aR*,8aS*)-2-amino-4,4,5,6-tetrahydro-7-oxa-3-thia-1-azanaphthalen-8a-yl)-4-trifluoromethoxyphenyl]-5-cyanopyridine-2-carboxamide] | 11 |
| NC1=N[C@@]2(c3cc(NC(=O)c4ccc(Cl)cn4)ccc3OC(F)(F)F)COCC[C@H]2CS1 (single isomer, unassigned) [Example 5, N-[3-((8S*,8aS*)-2-amino-4,4a,5,6-tetrahydro-7-oxa-3-thia-1-azanaphthalen-8a-yl)-4-trifluoromethoxyphenyl]-5-chloropyridine-2-carboxamide] | 58 |
| NC1=N[C@@]2(c3cc(NC(=O)c4ccc(Cl)cn4)ccc3F)COCC[C@H]2CS1 (single isomer, unassigned) [Example 49, N-[3-((4aR*,8aS*)-2-amino-4,4a,5,6-tetrahydro-7-oxa-3-thia-1-azanaphthalen-8a-yl)-4-fluorophenyl]-5-chloropyridine-2-carboxamide] | 2 |
| NC1=N[C@@]2(c3cc(NC(=O)c4ccc(Br)cn4)ccc3F)COCC[C@H]2CS1 (single isomer, unassigned) [Example 50, N-[3-((4aR*,8aS*)-2-amino-4,4a,5,6-tetrahydro-7-oxa-3-thia-1-azanaphthalen-8a-yl)-4-fluorophenyl]-5-bromopyridine-2-carboxamide] | 2 |
